Experimental data taken from US8008283B2, “Methods and compositions for the treatment of neuropsychiatric disorders” (Neurotherapeutics Pharma, Inc., priority 2005, dated 2011).

Assays:
rat hippocampal slices = experiment: stimulation evoked after discharge activity in rat hippocampal slices (Example 68); assay type: cell-based
Procedure: Sprague-Dawley rats (males and females; 25-35 days old) were decapitated, the top of the skull was rapidly removed, and the brain chilled with ice-cold oxygenated slicing medium. […] A hemisphere of brain containing hippocampus was blocked and glued (cyanoacrylic adhesive) to the stage of a Vibroslicer (Frederick Haer, Brunsick, Me.). […] In the recording chamber, the slices were perfused with oxygenated recording medium at 34-35° C. All animal procedures were conducted in accordance with NIH and University of Washington animal care guidelines. In most slice experiments, simultaneous extracellular field electrode recordings were obtained from CA1 and CA3 areas. A bipolar tungsten stimulating electrode was placed on the Schaffer collaterals to evoke synaptically-driven field responses in CA1. Stimuli consisted of 100-300 μsec duration pulses at an intensity of four times the population-spike threshold. After discharges were evoked by a 2 second train of such stimuli delivered at 60 Hz.

[1] = tested on: urethane-anesthetized rats; experiment: kainic acid-evoked electrical status epilepticus in urethane-anesthetized rats (Example 70); assay type: in vivo, rat
Procedure: Body temperature was monitored using a rectal temperature probe and maintained at 35-37° C. with a heating pad; heart rate (EKG) was continuously monitored. The jugular vein was cannulated on one side for intravenous drug administration. Rats were placed in a Kopf stereotaxic device (with the top of the skull level), and a bipolar stainless-steel microelectrode insulated to 0.5 mm of the tip was inserted to a depth of 0.5-1.2 mm from the cortical surface to record electroencephalographic (EEG) activity in the fronto-parietal cortex. In some experiments, a 2M NaCl-containing pipette was lowered to a depth of 2.5-3.0 mm to record hippocampal EEG. Data were stored on VHS videotape and analyzed off-line.
Following the surgical preparation and electrode placement, animals were allowed to recover for 30 minutes before the experiments were initiated with an injection of kainic acid (10-12 mg/kg i.v.). […] Experiments were terminated with the intravenous administration of urethane. Animal care was in accordance with NIH guidelines and approved by the University of Washington Animal Care Committee.

[2] = tested on: hippocampal slices, areas CA1 and CA3
Procedure: Hippocampal slices were prepared from Sprague-Dawley adult rats as described previously. Transverse hippocampal slices 100 μm thick were cut with a vibrating cutter. Slices typically contained the entire hippocampus and subiculum. After cutting, slices were stored in an oxygenated holding chamber at room temperature for at least one hour before recording.
Sharp-electrodes for intracellular recordings from CA1 and CA3 pyramidal cells were filled with 4 M potassium acetate. Field recordings from the CA1 and CA3 cell body layers were acquired with low-resistance glass electrodes filled with 2 M NaCl. For stimulation of the Schaffer collateral or hilar pathways, a small monopolar tungsten electrode was placed on the surface of the slice. Spontaneous and stimulation-evoked activities from field and intracellular recordings were digitized (Neurocorder, Neurodata Instruments, New York, N.Y.) and stored on videotape. AxoScope software (Axon Instruments) on a personal computer was used for off-line analysis of data.
In some experiments, normal or low-chloride medium was used containing bicuculline.
After placement in the interface chamber, slices were superfused at approximately 1 ml/min. At this flow-rate, it took 8-10 minutes for changes in the perfusion media to be completed. All of the times reported here have taken this delay into account and have an error of approximately ±2 minutes.
Single electrical stimuli were delivered to the Schaffer collaterals, midway between areas CA1 and CA3, every 30 seconds so that the field responses in areas CA1 and CA3 could be monitored throughout the duration of each experiment.

rats [3] = experiment: contextual fear conditioning in rats (freezing); assay type: in vivo, rat; conditions: I.V. in DMSO, furosemide 100 mg/kg, bumetanide 50 mg/kg; compared with vehicle alone; FIG. 5
Procedure: Contextual fear conditioning involves pairing an aversive event, in this case moderate foot shock, with a distinctive environment. The strength of the fear memory is assessed using freezing, a species-typical defensive reaction in rats, marked by complete immobility, except for breathing. […] However, if they are allowed to explore the distinctive environment sometime before the immediate shock, they show intense anxiety and fear when placed back into the same environment. We can take advantage of this fact and, by procedurally dividing contextual fear conditioning into two phases, we can separately study effects of treatments on memory for the context (specifically a hippocampus based process) from learning the association between context and shock or experiencing the aversiveness of the shock (which depend upon emotional response circuitry including amygdala). […] The experiment employed 24 rats. […] Each rat was again placed into the same environment for 8 min during which time freezing was measured, as an index of Pavlovian conditioned fear. […] Measurement of freezing was accomplished through an overhead video camera connected to the microcomputer and was automatically scored using a specialty piece of software, FreezeFrame (OER Inc., Reston, Va.). Total freezing time was analyzed in a one-way analysis of variance (ANOVA) test, with drug dose as the […] factor.

human patients = conditions: Haglund and Hochman, J. Neurophysiol. 2005; cited from earlier work
synchronized discharges = conditions: Hochman et al. Science 270:99-102, 1995; cited from earlier work
rats [4] = conditions: Granados-Soto et al. Pain 2005; cited from earlier work
human skin = conditions: Willis et al.; cited from earlier work
[5] = co-treatment with an NMDA receptor antagonist, non-NMDA receptor and Ca2+ channel antagonists together with furosemide; Collins et al. 1998; cited from earlier work
[6] = 2.5 mM furosemide, after 20 minutes of perfusion

Question: Which “CA1 field response to single test pulse” value (rat hippocampal slices; [6]) does the source give for NS(=O)(=O)c1cc(C(=O)O)c(NCc2ccco2)cc1Cl [furosemide] here?
Answer: The value was “hyper-excitable field response”.

Question: What about the stimulation-evoked optical changes (rat hippocampal slices; [6]) of the same compound?
Answer: The stimulation-evoked optical changes was “blocked”.

Question: And the “electrical after discharge activity” value (rat hippocampal slices; 2.5 mM furosemide, after 20 minutes of perfusion, Schaffer collateral stimulation 60 Hz 2 s, CA1)?
Answer: Its value is “blocked”.

Question: And the recovery after washout (rat hippocampal slices; after 45 minutes of perfusion with normal bathing medium)?
Answer: The recovery after washout was “restoration of initial response patterns”.

Question: What about the “minimum concentration required to block both the after discharges and optical changes” value (rat hippocampal slices; dose-dependency experiments) of the same compound?
Answer: Its value is 1.25 mM.

Question: And the cortical activity ([1]; 90 minutes after the furosemide injection)?
Answer: The cortical activity was “remained near normal baseline levels”.

Question: What about the “latency of block of seizure activity” value ([1]; intravenous furosemide, cumulative dose 40-60 mg/kg) of the same compound?
Answer: The value was 30 to 45 min.

Question: And the “seizure activity (EEG)” value ([1]; intravenous furosemide, cumulative dose 40-60 mg/kg, kainic acid 10-12 mg/kg i.v.)?
Answer: The value was “blocked”.

Question: What about the “order of cessation of spontaneous bursting in CA1 and CA3” value ([2]; 2.5 mM furosemide) of the same compound?
Answer: The value was “ceased in area CA1 before the bursting ceased in area CA3”.

Question: And the “time CA3 continued to discharge after CA1 became silent” value ([2]; 2.5 mM furosemide or low-chloride medium)?
Answer: The value was 5 to 10 min.

Question: What about the “field responses to stimulation of the Schaffer collaterals” value ([2]; throughout all stages of the experiments) of the same compound?
Answer: The value was “evoked hyperexcited field responses in both the CA1 and CA3 cell body layers”.

Question: What about the freezing (rats [3]) of the same compound?
Answer: The freezing was “significantly less freezing”.

Question: What about the “epileptic activity and normal brain activity in humans” value (human patients) of the same compound?
Answer: The value was “able to block epileptic activity in humans while not affecting normal brain activity”.

Question: And the “synchronized discharges and hyperexcited synaptic responses” value (synchronized discharges)?
Answer: The value was “reversibly blocked synchronized discharges without reducing hyperexcited synaptic responses”.

Question: What about the formalin-induced nociception (rats [4]) of the same compound?
Answer: The formalin-induced nociception was “reduced”.

Question: What about the “sensory nerve activation, itch and flare responses induced by histamine” value (human skin) of the same compound?
Answer: The value was “inhibit sensory nerve activation to reduce the itch and flare responses”.

Question: What about the “reduction of alcohol-dependent cerebrocortical damage” value [5] of the same compound?
Answer: The value was 75-85%.
